Measured values reported in US20210122730A1, “GLUCOCORTICOID RECEPTOR MODULATORS” (ORIC Pharmaceuticals, Inc., priority 2017, published 2021).

Columns and labels:
GR = target: T1, GR (Homo sapiens, UniProt P04150); assay: In Vitro GR Luciferase Reporter Assay (antagonist mode, CHO-K1-GR-MMTV-Luc reporter cells); format: cell-based; details: antagonist mode, 10 nM Dexamethasone
T1 construct: expressed in transfected cells; host or cells: CHO-K1
T1 sequence (P04150 1-777): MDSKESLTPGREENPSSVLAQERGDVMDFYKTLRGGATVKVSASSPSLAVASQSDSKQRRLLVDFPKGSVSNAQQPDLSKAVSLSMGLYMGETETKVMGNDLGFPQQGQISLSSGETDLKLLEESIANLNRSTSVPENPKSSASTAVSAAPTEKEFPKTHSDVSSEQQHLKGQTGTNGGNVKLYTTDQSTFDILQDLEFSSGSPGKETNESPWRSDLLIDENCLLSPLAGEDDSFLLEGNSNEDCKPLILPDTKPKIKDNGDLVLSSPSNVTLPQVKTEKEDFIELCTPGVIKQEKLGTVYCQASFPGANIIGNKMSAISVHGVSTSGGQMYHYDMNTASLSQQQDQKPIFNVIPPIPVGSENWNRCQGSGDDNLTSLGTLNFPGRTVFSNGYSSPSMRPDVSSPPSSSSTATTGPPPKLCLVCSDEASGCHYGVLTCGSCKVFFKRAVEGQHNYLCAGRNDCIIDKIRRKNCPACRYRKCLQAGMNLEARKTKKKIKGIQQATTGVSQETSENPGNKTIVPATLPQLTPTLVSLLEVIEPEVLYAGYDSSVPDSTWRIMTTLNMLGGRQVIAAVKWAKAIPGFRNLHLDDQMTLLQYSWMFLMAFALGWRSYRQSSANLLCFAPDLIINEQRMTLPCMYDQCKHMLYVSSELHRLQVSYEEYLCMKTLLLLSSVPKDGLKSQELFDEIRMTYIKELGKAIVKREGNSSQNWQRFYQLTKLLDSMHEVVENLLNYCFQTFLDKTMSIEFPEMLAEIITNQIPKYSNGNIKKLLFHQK
Summary of the method: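 Antagonist mode: compounds (8 serial 1:5 dilutions) added to GR-MMTV-luciferase CHO-K1 reporter cells co-exposed to 10 nM dexamethasone final, in phenol red-free DMEM plus 10% CSS. After roughly 18-24 h at 37° C, OneGlo luminescence read and IC50 calculated.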

CYP2C8 = target: T2, CYP2C8 (Homo sapiens, UniProt P10632); assay: CYP Inhibition Assay (CYP2C8, human liver microsomes, paclitaxel substrate); format: in vitro ADME; details: pH 7.4; pooled human liver microsomes 0.1 mg/mL, probe substrate paclitaxel
T2 construct: Pooled human microsomes were obtained from Sekisui XenoTech, KS; tissue Sekisui XenoTech, KS; host or cells: pooled human liver microsomes
T2 sequence (P10632 1-490): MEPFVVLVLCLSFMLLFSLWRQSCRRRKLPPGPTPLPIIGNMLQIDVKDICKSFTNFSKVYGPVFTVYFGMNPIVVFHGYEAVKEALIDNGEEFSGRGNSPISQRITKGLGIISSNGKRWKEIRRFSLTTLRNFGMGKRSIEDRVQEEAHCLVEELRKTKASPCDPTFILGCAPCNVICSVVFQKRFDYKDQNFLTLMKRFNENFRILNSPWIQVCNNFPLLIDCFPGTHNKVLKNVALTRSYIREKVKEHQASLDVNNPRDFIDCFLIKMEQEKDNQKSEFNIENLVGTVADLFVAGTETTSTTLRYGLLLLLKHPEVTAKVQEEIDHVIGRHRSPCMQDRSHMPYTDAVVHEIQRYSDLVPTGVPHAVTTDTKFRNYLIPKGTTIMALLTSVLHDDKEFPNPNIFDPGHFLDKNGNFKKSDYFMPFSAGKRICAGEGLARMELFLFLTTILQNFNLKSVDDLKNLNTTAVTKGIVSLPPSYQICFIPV
Summary of the method: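 CYP2C8 activity read as 6α-hydroxypaclitaxel formation by LC-MS/MS, with % inhibition versus vehicle control. Reactions ran 5 min at 37° C, pH 7.4 phosphate buffer, 0.1 mg/mL pooled human liver microsomes, 1 mM NADPH, duplicate wells.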

Row | IC50 (GR) | inhibition at 5 min (CYP2C8) | Structure (SMILES)
1 | ≤ 100 nM | 50 to 75% | CC(C)N([C@H]1CCC2=Cc3c(cnn3-c3ccc(F)cc3)C[C@]2(C(=O)c2cc(Cl)ccn2)C1)S(=O)(=O)c1cn(C)nn1 [Example 296, N-((4aS,6S)-4a-(4-chloropicolinoyl)-1-(4-fluorophenyl)-4,4a,5,6,7,8-hexahydro-1H-benzo[f]indazol-6-yl)-N-isopropyl-1-methyl-1H-1,2,3-triazole-4-sulfonamide]
2 | ≤ 100 nM | 50 to 75% | Cn1ccc(S(=O)(=O)N(CC2CC2)[C@H]2CCC3=Cc4c(cnn4-c4ccc(F)cc4)C[C@]3(C(=O)c3cc(C(F)F)ccn3)C2)n1 [Example 298, N-(cyclopropylmethyl)-N-((4aS,6S)-4a-(4-(difluoromethyl)picolinoyl)-1-(4-fluorophenyl)-4,4a,5,6,7,8-hexahydro-1H-benzo[f]indazol-6-yl)-1-methyl-1H-pyrazole-3-sulfonamide]
3 | ≤ 100 nM | ≤ 25% | CC(C)N([C@H]1CCC2=Cc3c(cnn3-c3ccc(F)cc3)C[C@]2(C(=O)c2ncc(C(F)(F)F)s2)C1)S(=O)(=O)c1cn(C)cn1 [Example 299, N-((4aS,6S)-1-(4-fluorophenyl)-4a-(5-(trifluoromethyl)thiazole-2-carbonyl)-4,4a,5,6,7,8-hexahydro-1H-benzo[f]indazol-6-yl)-N-isopropyl-1-methyl-1H-imidazole-4-sulfonamide]
4 | ≤ 100 nM | 50 to 75% | Cn1ncc(S(=O)(=O)N(CC(F)(F)F)[C@H]2CCC3=Cc4c(cnn4-c4ccc(F)cc4)C[C@]3(C(=O)c3ncc(C(F)(F)F)s3)C2)n1 [Example 300, N-((4aS,6S)-1-(4-fluorophenyl)-4a-(5-(trifluoromethyl)thiazole-2-carbonyl)-4,4a,5,6,7,8-hexahydro-1H-benzo[f]indazol-6-yl)-2-methyl-N-(2,2,2-trifluoroethyl)-2H-1,2,3-triazole-4-sulfonamide]
5 | ≤ 100 nM | 25 to 50% | Cc1ncc(S(=O)(=O)N(C2CC2)[C@H]2CCC3=Cc4c(cnn4-c4ccc(F)cc4)C[C@]3(C(=O)c3cc(C(F)(F)F)ccn3)C2)n1C [Example 307, N-cyclopropyl-N-((4aS,6S)-1-(4-fluorophenyl)-4a-(4-(trifluoromethyl)picolinoyl)-4,4a,5,6,7,8-hexahydro-1H-benzo[f]indazol-6-yl)-1,2-dimethyl-1H-imidazole-5-sulfonamide]
6 | ≤ 100 nM | 25 to 50% | CCn1ccc(S(=O)(=O)[C@H]2CCC3=Cc4c(cnn4-c4ccc(F)cc4)C[C@]3(C(=O)c3ccc(C(F)(F)F)cn3)C2)n1 [Example 308, ((4aS,6S)-6-((1-ethyl-1H-pyrazol-3-yl)sulfonyl)-1-(4-fluorophenyl)-1,4,5,6,7,8-hexahydro-4aH-benzo[f]indazol-4a-yl)(5-(trifluoromethyl)pyridin-2-yl)methanone]
7 | ≤ 100 nM | ≤ 25% | O=C(c1ccc(C(F)(F)F)cn1)[C@]12Cc3cnn(-c4ccc(F)cc4)c3C=C1CC[C@H](S(=O)(=O)c1ccn(C3CC3)n1)C2 [Example 309, ((4aS,6S)-6-((1-cyclopropyl-1H-pyrazol-3-yl)sulfonyl)-1-(4-fluorophenyl)-1,4,5,6,7,8-hexahydro-4aH-benzo[f]indazol-4a-yl)(5-(trifluoromethyl)pyridin-2-yl)methanone]
8 | ≤ 100 nM | 25 to 50% | CC(C)n1ccc(S(=O)(=O)[C@H]2CCC3=Cc4c(cnn4-c4ccc(F)cc4)C[C@]3(C(=O)c3ccc(C(F)(F)F)cn3)C2)n1 [Example 310, ((4aS,6S)-1-(4-fluorophenyl)-6-((1-isopropyl-1H-pyrazol-3-yl)sulfonyl)-1,4,5,6,7,8-hexahydro-4aH-benzo[f]indazol-4a-yl)(5-(trifluoromethyl)pyridin-2-yl)methanone]
9 | ≤ 100 nM | ≤ 25% | Cn1cc(S(=O)(=O)N(CC(F)F)[C@H]2CCC3=Cc4c(cnn4-c4ccc(F)cc4)C[C@]3(C(=O)c3cc(C(F)(F)F)ccn3)C2)nn1 [Example 311, N-(2,2-difluoroethyl)-N-((4aS,6S)-1-(4-fluorophenyl)-4a-(4-(trifluoromethyl)picolinoyl)-4,4a,5,6,7,8-hexahydro-1H-benzo[f]indazol-6-yl)-1-methyl-1H-1,2,3-triazole-4-sulfonamide]
10 | ≤ 100 nM | 25 to 50% | O=C(c1ncc(C(F)(F)F)s1)[C@]12Cc3cnn(-c4ccc(F)cc4)c3C=C1CC[C@H](N(CC(F)(F)F)S(=O)(=O)c1ccc(Cl)nc1)C2 [Example 312, 6-chloro-N-((4aS,6S)-1-(4-fluorophenyl)-4a-(5-(trifluoromethyl)thiazole-2-carbonyl)-4,4a,5,6,7,8-hexahydro-1H-benzo[f]indazol-6-yl)-N-(2,2,2-trifluoroethyl)pyridine-3-sulfonamide]
11 | ≤ 100 nM | 25 to 50% | Cn1ccc(S(=O)(=O)N(CC(F)F)[C@H]2CCC3=Cc4c(cnn4-c4ccc(F)cc4)C[C@]3(C(=O)c3cc(C(F)(F)F)ccn3)C2)n1 [Example 313, N-(2,2-difluoroethyl)-N-((4aS,6S)-1-(4-fluorophenyl)-4a-(4-(trifluoromethyl)picolinoyl)-4,4a,5,6,7,8-hexahydro-1H-benzo[f]indazol-6-yl)-1-methyl-1H-pyrazole-3-sulfonamide]
12 | ≤ 100 nM | 25 to 50% | Cn1cnc(S(=O)(=O)N(CC2CC2)[C@H]2CCC3=Cc4c(cnn4-c4ccc(F)cc4)C[C@]3(C(=O)c3ncc(C(F)(F)F)s3)C2)n1 [Example 315, N-(cyclopropylmethyl)-N-((4aS,6S)-1-(4-fluorophenyl)-4a-(5-(trifluoromethyl)thiazole-2-carbonyl)-4,4a,5,6,7,8-hexahydro-1H-benzo[f]indazol-6-yl)-1-methyl-1H-1,2,4-triazole-3-sulfonamide]
13 | ≤ 100 nM | 50 to 75% | O=C(c1cc(F)ccn1)[C@]12Cc3cnn(-c4ccc(F)cc4)c3C=C1CC[C@H](N(CC1CC1)S(=O)(=O)c1ccc(Cl)nc1)C2 [Example 319, 6-chloro-N-(cyclopropylmethyl)-N-((4aS,6S)-1-(4-fluorophenyl)-4a-(4-fluoropicolinoyl)-4,4a,5,6,7,8-hexahydro-1H-benzo[f]indazol-6-yl)pyridine-3-sulfonamide]
14 | ≤ 100 nM | 25 to 50% | O=C(c1cc(F)ccn1)[C@]12Cc3cnn(-c4ccc(F)cc4)c3C=C1CC[C@H](N(C1CC1)S(=O)(=O)c1ccc(Cl)nc1)C2 [Example 320, 6-chloro-N-cyclopropyl-N-((4aS,6S)-1-(4-fluorophenyl)-4a-(4-fluoropicolinoyl)-4,4a,5,6,7,8-hexahydro-1H-benzo[f]indazol-6-yl)pyridine-3-sulfonamide]
15 | ≤ 100 nM | ≤ 25% | O=C(c1cc(Cl)ccn1)[C@]12Cc3cnn(-c4ccc(F)cc4)c3C=C1CC[C@H](N(C1CC1)S(=O)(=O)c1ccc(Cl)nc1)C2 [Example 321, 6-chloro-N-((4aS,6S)-4a-(4-chloropicolinoyl)-1-(4-fluorophenyl)-4,4a,5,6,7,8-hexahydro-1H-benzo[f]indazol-6-yl)-N-cyclopropylpyridine-3-sulfonamide]
16 | ≤ 100 nM | 25 to 50% | CC(C)N([C@H]1CCC2=Cc3c(cnn3-c3ccc(F)cc3)C[C@]2(C(=O)c2cc(F)ccn2)C1)S(=O)(=O)c1ccc(Cl)nc1 [Example 322, 6-chloro-N-((4aS,6S)-1-(4-fluorophenyl)-4a-(4-fluoropicolinoyl)-4,4a,5,6,7,8-hexahydro-1H-benzo[f]indazol-6-yl)-N-isopropylpyridine-3-sulfonamide]
